From patent publication US20210253651A1, “METHOD FOR PRODUCING ORGANIC COMPOUND-ENCAPSULATING FERRITIN” (Ajinomoto Co., Inc., priority 2018, published 2021)
Counter-ions that a name gives are not always drawn.

Legend:
FTHc ferritin = target: T1, FTHc ferritin (Homo sapiens, UniProt P02794); experiment: one-step incorporation of DOX into mutant ferritin FTHc; type: physicochemical; details: pH 8, 50° C., 60 minutes, DOX 0.3 mg/L
T1 construct: pET20-FTH carrying a DNA encoding a human-derived ferritin H chain monomer as a template; single cysteine residue (C) appended; made in house; host or cells: Escherichia coli BL21 (DE3), plasmid pET20-FTHc
Experimental: PCR was carried out using pET20-FTH carrying a DNA encoding a human-derived ferritin H chain monomer as a template as well as the following primers: 5′-[…]-3′ (SEQ ID NO: 12) and 5′-[…]-3′ (SEQ ID NO: 13). The resulting PCR products were purified using Wizard DNA Clean-Up System (Promega Corporation), and then treated with restriction enzymes, Dpnl and BamHI (Takara Bio Inc.) for self-ligation in order to construct an expression plasmid (pET20-FTHc) carrying a gene encoding FTHc monomer with a cysteine added to the C-terminus. Ferritin including FTHc monomers is referred to as FTHc ferritin, as appropriate.
DOX was mixed with 1 mL of 50 mM Tris-HCl buffer (pH 8) that contains each mutate ferritin at a final concentration of 1 mg/mL, to achieve a final concentration of 0.3 mg/L, and then the resulting solutions were left to stand at 50° C. for 60 minutes. After the standing and centrifuging (at 15,000 rpm for one minute), the supernatant was injected into the desalting column PD-10 (Sephadex G-25 filled product, GE Healthcare Inc.) equilibrated with 10 mM Tris-HCl buffer (pH 8) to separate the protein from a reagent that was not encapsulated. […] The concentration of contained protein was determined using the protein assay CBB solution (Nacalai Tesque, Inc.) as well as bovine albumin as a standard. The DOX concentration was determined based on analysis of the absorbance at 480 nm.

FTH ferritin [1] = target: T2, FTH ferritin (Homo sapiens, UniProt P02794); experiment: ratio of amounts incorporated, one-step vs disassembly-reassembly process; type: physicochemical
T2 construct: made in house; host or cells: Escherichia coli BL21 (DE3), plasmid pET20-FTH
Experimental: As a control, some of small molecule agents listed in Table 1 was incorporated into ferritin also at the disassembly-reassembly process. […] Then, 10 μL of 1M Tris-HCl buffer (pH 9.0) was added for neutralization, and the resulting solution was left to stand for 15 minutes at room temperature. After the standing, 0.5 mL of water was added. After the resulting solution was centrifuged (at 15,000 rpm for one minute), the supernatant was injected into the desalting column PD-10 (Sephadex G-25 filled product, GE Healthcare Inc.) equilibrated with 10 mM Tris-HCl buffer (pH 8) to separate the protein from a reagent that was not encapsulated. […]
The absorbances were measured using spectrophotometer (DU-800, Beckman Coulter Inc.) for these solutions, and the concentration of contained protein was determined using the protein assay CBB solution (Nacalai Tesque, Inc.) as well as bovine albumin as a standard. Absorbances at 280 nm and 480 nm were measured for Rhodamine B and Congo Red. […] Then, after the absorbances were calibrated based on the absorbances that were derived from the proteins and presumed by the amount of contained protein quantified using the protein assay CBB solution, the concentrations of small molecule agents were determined based on the calibration curves obtained by the absorbances of the molecules. […]

[2] = room temperature; cited from earlier work
FTH ferritin [3] = target: T2, FTH ferritin; experiment: disassembly-reassembly process incorporation of DOX into FTH ferritin; type: physicochemical; details: standing 15 minutes, DOX 0.2 mg/L
Experimental: Then, 10 μL of 1M Tris-HCl buffer (pH 9.0) was added for neutralization, and the resulting solution was left to stand for 5 to 120 minutes at room temperature. After the standing, 0.5 mL of water was added to the resulting solution. After the resulting solution was centrifuged (at 15,000 rpm for one minute), the supernatant was injected into the desalting column PD-10 (Sephadex G-25 filled product, GE Healthcare Inc.) equilibrated with 10 mM Tris-HCl buffer (pH 8) to separate the protein from a reagent that was not encapsulated. Whole amount (3.5 mL) of the resulting solution was concentrated to 0.1 mL by centrifugal ultrafiltration using Vivaspin 20-100K (GE Healthcare Inc.), and then the absorbances at 280 nm and 480 nm were measured using spectrophotometer (DU-800, Beckman Coulter Inc.).

T2 sequence (P02794 whole entry): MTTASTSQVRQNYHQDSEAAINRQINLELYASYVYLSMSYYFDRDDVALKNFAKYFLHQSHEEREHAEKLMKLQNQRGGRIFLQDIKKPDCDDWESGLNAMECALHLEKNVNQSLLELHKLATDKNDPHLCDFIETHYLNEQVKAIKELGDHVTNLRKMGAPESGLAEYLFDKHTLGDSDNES
T1 sequence (P02794 with tags, fused parts or gaps): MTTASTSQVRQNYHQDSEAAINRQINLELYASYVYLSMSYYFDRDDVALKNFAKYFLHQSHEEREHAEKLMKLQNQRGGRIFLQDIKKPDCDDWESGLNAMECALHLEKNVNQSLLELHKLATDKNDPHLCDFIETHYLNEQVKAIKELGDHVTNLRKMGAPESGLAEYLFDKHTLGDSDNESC

Which results are given for `COc1cccc2c1C(=O)c1c(O)c3c(c(O)c1C2=O)C[C@@](O)(C(=O)CO)C[C@@H]3OC1CC(N)C(O)C(C)O1` (stereo partly shown) [DOX, Doxorubicin hydrochloride]?
incorporation efficiency of the reagent (FTHc ferritin): 8.6 % (wt); ratio of amount incorporated at the one-step process to that at the disassembly-reassembly process (FTH ferritin [1]): 30 fold; solubility of DOX in water [2]: ≥ 60 mg/mL; highest incorporation efficiency of the reagent (FTH ferritin [3]): 2 % (wt)
